From the supplement of paper PMC10307832

What was measured:
Test in all cases: relative viability (nuclei count vs DMSO), 5 days (fraction); higher = more cells survive
KIN001-266 + Bortezomib = compound: CCN1CCC(CC1)N2C=C(N=N2)CNC3=CC4=C(C(=CN=C4C(=C3)Cl)C#N)NC5=CC(=C(C=C5)F)Cl [KIN001-266] + CC(C)C[C@H](NC(=O)[C@H](Cc1ccccc1)NC(=O)c1cnccn1)B(O)O [Bortezomib] (partner 0.002 µM)
Outline: (§1)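 Relative viability was taken as the ratio of nuclei in treated wells to nuclei in vehicle wells. Lung cancer cell lines in 1536-well plates received compounds by pin tool one day after seeding, either one drug alone or a fixed anchor-drug dose plus five library-drug doses (not always all listed) in √10 steps. Nuclei were counted on 4× images after 5 days of treatment, and values are medians of duplicate plates.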

KIN001-266 + Navitoclax = compound: CCN1CCC(CC1)N2C=C(N=N2)CNC3=CC4=C(C(=CN=C4C(=C3)Cl)C#N)NC5=CC(=C(C=C5)F)Cl [KIN001-266] + CC1(C)CCC(c2ccc(Cl)cc2)=C(CN2CCN(c3ccc(C(=O)NS(=O)(=O)c4ccc(N[C@H](CCN5CCOCC5)CSc5ccccc5)c(S(=O)(=O)C(F)(F)F)c4)cc3)CC2)C1 [Navitoclax] (partner 0.5 µM)
Outline: as §1

KIN001-266 + Luminespib = compound: CCN1CCC(CC1)N2C=C(N=N2)CNC3=CC4=C(C(=CN=C4C(=C3)Cl)C#N)NC5=CC(=C(C=C5)F)Cl [KIN001-266] + CCNC(=O)c1noc(-c2cc(C(C)C)c(O)cc2O)c1-c1ccc(CN2CCOCC2)cc1 [Luminespib] (partner 0.01 µM)
Outline: as §1

KIN001-266 + Dasatinib = compound: CCN1CCC(CC1)N2C=C(N=N2)CNC3=CC4=C(C(=CN=C4C(=C3)Cl)C#N)NC5=CC(=C(C=C5)F)Cl [KIN001-266] + Cc1nc(Nc2ncc(C(=O)Nc3c(C)cccc3Cl)s2)cc(N2CCN(CCO)CC2)n1 [Dasatinib] (partner 0.075 µM)
Outline: as §1

Cell Line	relative viability (KIN001-266 + Bortezomib; first compound 0.08 µM)	relative viability (KIN001-266 + Bortezomib; first compound 0.253 µM)	relative viability (KIN001-266 + Bortezomib; first compound 0.8 µM)	relative viability (KIN001-266 + Bortezomib; first compound 2.53 µM)	relative viability (KIN001-266 + Bortezomib; first compound 8 µM)	relative viability (KIN001-266 + Navitoclax; first compound 0.08 µM)	relative viability (KIN001-266 + Navitoclax; first compound 0.253 µM)	relative viability (KIN001-266 + Navitoclax; first compound 0.8 µM)	relative viability (KIN001-266 + Navitoclax; first compound 2.53 µM)	relative viability (KIN001-266 + Navitoclax; first compound 8 µM)	relative viability (KIN001-266 + Luminespib; first compound 0.08 µM)	relative viability (KIN001-266 + Luminespib; first compound 0.253 µM)	relative viability (KIN001-266 + Luminespib; first compound 0.8 µM)	relative viability (KIN001-266 + Luminespib; first compound 2.53 µM)	relative viability (KIN001-266 + Luminespib; first compound 8 µM)	relative viability (KIN001-266 + Dasatinib; first compound 0.08 µM)	relative viability (KIN001-266 + Dasatinib; first compound 0.253 µM)	relative viability (KIN001-266 + Dasatinib; first compound 0.8 µM)	relative viability (KIN001-266 + Dasatinib; first compound 2.53 µM)	relative viability (KIN001-266 + Dasatinib; first compound 8 µM)
201T	1.09	0.941	1.08	1.06	1.16	1.18	1.23	1.23	1.19	1.21	1.05	1.05	1	1.04	1.06	0.62	0.513	0.545	0.606	0.589
A-427	1.06	1	0.955	0.982	0.817	0.973	0.991	0.978	0.983	0.953	0.874	0.843	0.979	0.913	0.969	0.742	0.614	0.661	0.686	0.575
ABC-1	0.269	0.344	0.346	0.288	0.274	–	–	–	–	–	0.757	0.956	0.655	1.02	0.378	0.521	0.632	0.652	0.489	0.399
BEN	0.899	0.698	0.885	0.909	0.921	0.064	0.0577	0.0627	0.0713	0.0844	0.559	0.651	0.861	0.288	0.458	0.296	0.362	0.292	0.274	0.345
CAL-12T	1.04	0.976	–	1.12	0.97	1.47	1.31	1.17	1.33	1.15	0.363	0.322	0.499	0.475	0.2	0.444	0.49	0.345	0.52	0.278
COR-L23	0.966	0.994	0.927	0.857	0.777	0.99	1.03	1.01	1.01	0.54	0.638	0.636	0.694	0.621	0.423	0.523	0.495	0.476	0.484	0.372
COR-L 105	0.886	0.884	0.719	0.768	0.602	0.725	0.681	0.805	0.946	0.817	0.616	0.802	0.758	0.743	1.02	0.373	0.419	0.343	0.377	0.326
Calu-6	1.11	1.11	1.05	0.948	0.682	0.868	0.877	0.859	0.64	0.437	–	–	–	–	–	–	–	–	–	–
ChaGo-K-1	1.11	1.17	–	1.09	1.1	1.27	1.12	–	1.1	1.14	0.689	0.741	0.385	0.57	0.327	0.581	0.58	0.528	0.512	0.533
EBC-1	0.566	0.502	0.477	0.446	0.364	0.398	0.413	0.409	0.359	0.217	–	–	–	–	–	–	–	–	–	–
EKVX	1.12	1	1.01	1.06	1.01	1.08	0.822	0.925	0.975	0.876	0.86	0.869	0.735	0.89	0.986	0.468	0.519	0.549	0.533	0.406
EMC-BAC-2	1.07	1.11	1.02	1.04	1.04	1.15	1.1	1.08	1.16	1.22	1.27	1.25	1.11	1.18	1.25	0.352	0.392	0.319	0.373	0.331
EPLC-272H	1.19	0.949	0.751	0.839	0.605	1.16	1.42	0.966	1.11	0.763	0.253	0.268	0.323	0.181	0.176	0.467	0.324	0.333	0.421	0.234
H3255	0.899	0.775	0.838	0.788	0.699	0.689	0.566	0.494	0.482	0.615	0.909	0.945	0.935	0.847	0.912	0.359	0.334	0.288	0.404	0.346
HARA	1.07	1.09	1.16	1.07	1.04	1.17	1.03	1.14	1.11	1.03	0.704	0.718	0.395	0.878	0.307	0.26	0.256	0.231	0.264	0.281
HCC-15	1.01	1.04	0.868	0.864	0.662	0.722	0.676	0.624	0.553	0.411	0.232	0.475	0.241	0.248	0.136	0.683	0.592	0.566	0.596	0.448
HCC-44	0.944	0.867	0.815	0.852	0.864	1.03	1.08	0.946	1.06	1.03	1.02	1.04	1.1	1.01	1.19	–	–	–	–	–
